# Test results: patent US12521439B2, “Methods and materials for modulating Nrf2 pathway” (The General Hospital Corporation, priority 2019, dated 2026)
# Legend:
# [1] = tested on: HO1 transcripts in MDA-MB-231 tumors; assay: HO1 mRNA in fat pad breast tumors in vivo; set-up: species or system mice; conditions: 7.5 mg/kg i.p. for four consecutive days
# Procedure: Real-time qRT-PCR: Total RNA isolation from cultured cells was performed using RNeasy kit (Qiagen), followed by reverse transcription with OneScript cDNA synthesis Kit (ABM). mRNA expression of different genes was then analyzed by quantitative PCR using PowerUp SYBR Green Master Mix (Applied Biosystems) and performed using a QuantStudio3 real-time PCR system (Applied Biosystems). Primer sequences for HO1, NQO1, TXNRD2 were obtained from the MGH primer bank and were as follows: HO1 Forward, 5′-[…]-3′ and reverse 5′-[…]-3′; NQO1 Forward 5′-[…]-3′ and reverse 5′-[…]-3′ and Txnrd2 forward 5′-[…]-3 and reverse 5′-[…]. Oligonucleotides were synthesized by the CCIB DNA Core Facility at Massachusetts General Hospital. Expression of human GAPDH was used to mRNA normalization and relative mRNA expression was calculated using the comparative Ct method.
# In vivo Tumor Models: Animal experiments performed by our laboratory were approved by the Massachusetts General Hospital Subcommittee on Research Animal Care. Female athymic nude mice (6-8 weeks) were used in all studies with the exception of pharmacokinetics analysis. For brain tumors xenograft model, GBM8 cells (1×10^5 cells/mouse) stably expressing Fluc were stereotactically implanted into the left striatum of animals. […] Tumor volumes were measured using a caliper and calculated according to the following formula: volume=(width)^2×length/2. […]
# U87 glioma cells = assay: Cell viability (CellTiter-Glo), U87; format: cell-based, human; conditions: shKeap1 vs shCtr1, four days
# Procedure: Cell culture: MDA-MB-231 and U87 (U87-MG) cells were obtained from the American Type Culture Collection (ATCC). 293T human embryonic kidney fibroblasts were provided by Dr. Xandra Breakefield (Massachusetts General Hospital). All three cell lines were grown in Dulbecco's modified Eagle medium supplemented with 10% fetal bovine serum (Gemini Bio-products), 100 U penicillin, and 0.1 mg/mL streptomycin (Sigma). All cells were maintained at 37° C. in a humidified 5% CO2 incubator. GSCs were obtained from tumor tissues of GBM patients following surgical resection, under approval from the corresponding Institutional Review Board. These cells have been previously characterized (ref. 37-39) and were maintained in culture as neurospheres in Neurobasal medium (Gibco) supplemented with heparin (2 μg/mL; Sigma) and recombinant EGF (20 ng/mL) and bFGF-2 (10 ng/mL; Peprotech). Human Astrocytes were obtained from ScienCell and cultured in Astrocytes Medium (ScienCell)
# Cell viability: Cells were plated in 96-well plates and treated with the corresponding compounds. Cell viability was measured by adding 25 μl/well of CellTiter-Glo (Promega) followed by 10 minutes incubation and transfer to a white 96-well plate. Bioluminescence was quantified using Synergy HTX multimode reader (Biotek).
compound,measurement,setting,value
"COC1=CC(=O)C(O)=C/C1=C/C=C/c1ccccc1 [OBT, (Z)-2-hydroxy-5-methoxy-4-((E)-3-phenylallylidene)cyclohexa-2,5-dien-1-one]",upregulation of HO1 transcripts in the tumor,[1],7 fold
same,cell death after silencing of Keap1,U87 glioma cells,decreased cell death
